Assay results: patent US9790173B2, “Alpha-7 nicotinic acetylcholine receptor modulators and uses thereof-I” (MERCK SHARP & DOHME CORP., priority 2012, dated 2017)

Molecular target: T1, rat α7 nAChRs (Rattus norvegicus, UniProt Q05941)
T1 construct: expressed in transfected cells; host or cells: GH4C1 cells (rat pituitary line) stably expressing α7 nAChR
Test: Automated planar patch clamp (Patchliner) electrophysiology, α7 nAChR PAM activity
Type: cell-based
Set-up: key to Type I or Type II: I: Type 1 predominately affects the peak current; Type II modulators affect the peak current and also delay the desensitization of the receptor
Conditions: for Type I or Type II: modulator type based on the electrophysiology trace; for activation at 3 µM: GH4-C1, 3 μM compound in the presence of acetylcholine, GH4C1 cells expressing rat α7 nAChRs, peak current, read-out: Peak potentiation at 3 μM compound
Protocol: Tested compounds were prepared by serial dilutions of 10 mM stock solution in DMSO to concentrations of the compound 1000 times higher than its final concentration. The DMSO stock solutions were then diluted 1:100 in the recording buffer bringing DMSO concentration to 1%. These intermediate solutions were further diluted 10 times with buffer to obtain final concentrations and lower DMSO concentration to 0.1%. […]
Compounds of the invention may be evaluated by electrophysiology using a Patchliner® (Nanion Technologies GmbH, Germany), an automated planar patch-clamp platform of medium throughput was used as a first step in electrophysiological assessment of α7 nAChR positive allosteric modulators (PAMs).
Briefly, intracellular (KCl—50 mM, NaCl—10 mM, KF—60 mM, EGTA—20 mM, HEPES—10 mM, pH—7.2, 285 mOsmol) and extracellular (NaCl—140 mM, KCl—4 mM, CaCl2—2 mM, MgCl2—1 mM, HEPES—10 mM, D-Glucose—5 mM, pH—7.4, 298 mOsmol) solutions were automatically pipetted onto NPC-16 chip (medium resistance ˜2.5-2.6 MΩ). Suspension of GH4C1 cells expressing rat α7 nAChRs was introduced in 4 wells of a medium resistance chip and suction was applied to attract cells in the holes. The extracellular solution was subsequently exchanged to high calcium solution (NaCl—80 mM, KCl—3 mM, CaCl2—45 mM, HEPES—10 mM, pH—7.4, 298 mOsmol) followed by gigaohm seal formation and obtaining whole-cell configuration. The rest of protocol was carried out in the high-calcium recording solution. Holding potential was −70 mV throughout the protocol. A control response to 60 or 100 μM of ACh was obtained first. Next, a cell was pre-incubated with compound of interest at 3 μM for ˜30 s after which the compound was co-applied with acetylcholine.
Amplitude of the responses was measured in HEKA Patchmaster software (HEKA Elektronik, Germany) and percentage of potentiation calculated. Recording was repeated […] a minimum of two replicates had been obtained per compound.
Compounds shown in Table 1 were evaluated by automated planar patch clamp on the Patchliner® as described in Example P2.1. […] The compounds are designated either as Type I or Type II modulators based on the electrophysiology trace. Type 1 predominately affects the peak current. Type II modulators affect the peak current and also delay the desensitization of the receptor.

T1 sequence (Q05941 23-502): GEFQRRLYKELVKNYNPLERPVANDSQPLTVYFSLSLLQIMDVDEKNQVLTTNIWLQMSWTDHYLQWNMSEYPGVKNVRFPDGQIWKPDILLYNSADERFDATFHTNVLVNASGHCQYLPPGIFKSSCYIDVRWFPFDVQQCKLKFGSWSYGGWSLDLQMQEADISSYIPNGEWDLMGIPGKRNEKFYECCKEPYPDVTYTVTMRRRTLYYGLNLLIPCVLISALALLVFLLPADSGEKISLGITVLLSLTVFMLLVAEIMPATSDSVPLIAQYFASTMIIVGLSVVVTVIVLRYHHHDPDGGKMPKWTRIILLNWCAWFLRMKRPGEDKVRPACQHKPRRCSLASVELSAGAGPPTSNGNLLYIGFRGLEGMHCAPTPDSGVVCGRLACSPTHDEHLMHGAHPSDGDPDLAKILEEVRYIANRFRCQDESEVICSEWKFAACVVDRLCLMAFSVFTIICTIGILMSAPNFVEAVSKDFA

| Compound | Type I or Type II | activation at 3 µM [%] |
| --- | --- | --- |
| CC1(C)C(c2ccc(S(N)(=O)=O)cc2)[C@H]1CNc1ccc(F)c(C(F)(F)F)c1 (mixture of isomers) [Example 33, ±trans 4-[3-({[4-fluoro-3-(trifluoromethyl)phenyl]amino}methyl)-2,2-dimethylcyclopropyl]benzenesulfonamide] | II | – |
| CC1(C)C(c2ccc(S(N)(=O)=O)cc2)[C@H]1CNc1ccc(F)cc1OC(F)F (mixture of isomers) [Example 34, ±trans 4-[3-({[2-(difluoromethoxy)-4-fluorophenyl]amino}methyl)-2,2-dimethylcyclopropyl]benzenesulfonamide] | II | – |
| CC(C)(C)c1cc(NC[C@@H]2C(c3ccc(S(N)(=O)=O)cc3)C2(C)C)no1 (mixture of isomers) [Example 35, ±trans 4-(3-{[(5-tert-butyl-1,2-oxazol-3-yl)amino]methyl)}2,2-dimethylcyclopropyl)benzenesulfonamide] | II | 57 |
| Cc1cc(F)ccc1NC[C@@H]1[C@@H](c2ccc(S(N)(=O)=O)cc2)C1(C)C (racemic) [Example 38, ±trans 4-[-3-{[(4-fluoro-2-methylphenyl)amino]methyl}-2,2-dimethylcyclopropyl]benzenesulfonamide] | II | – |
| COc1ccc(Cl)cc1NC[C@@H]1[C@@H](c2ccc(NS(C)(=O)=O)cc2)C1(C)C (racemic) [Example 46, ±trans N-{4-[3-{[(5-chloro-2-methoxyphenyl)amino]methyl}-2,2-dimethylcyclopropyl]phenyl}methanesulfonamide] | I | 783 |
| COc1ccc(Cl)cc1NC[C@@H]1[C@@H](c2ccc(NS(N)(=O)=O)cc2)C1(C)C (racemic) [Example 59, ±trans N-[4-(3-{[(5-chloro-2-methoxyphenyl)amino]methyl}-2,2-dimethylcyclopropyl)phenyl]sulfuric diamide] | I | – |
| CC1(C)[C@H](CNC2CCCCC2(F)F)[C@H]1c1ccc(S(N)(=O)=O)cc1 (relative stereo) [Example 62, trans 4-(3-{[(2,2-difluorocyclohexyl)amino]methyl}-2,2-dimethylcyclopropyl)benzenesulfonamide] | II | 38 |
| COc1ccc(Cl)cc1NC[C@@H]1[C@@H](c2ccc(NS(C)(=O)=O)cc2)C1(C)C (single isomer, unassigned; enantiomer a) [Example 47] | I | 867 |
| Cc1cc(F)ccc1NC[C@@H]1[C@@H](c2ccc(S(N)(=O)=O)cc2)C1(C)C (single isomer, unassigned; enantiomer a) [Example 57, Enantiomer A of trans 4-[3-{[(4-fluoro-2-methylphenyl)amino]methyl}-2,2-dimethylcyclopropyl]benzenesulfonamide] | I | 473 |
| Cc1cc(F)ccc1NC[C@H]1[C@H](c2ccc(S(N)(=O)=O)cc2)C1(C)C (single isomer, unassigned; enantiomer b) [Example 58, Enantiomer B of trans 4-[3-{[(4-fluoro-2-methylphenyl)amino]methyl}-2,2-dimethylcyclopropyl]benzenesulfonamide] | II | – |
| NS(=O)(=O)c1ccc([C@@H]2C[C@H]2CNc2cc(F)ccc2OC(F)(F)F)cc1 (stereo in doubt) [Example 53, 4-[(1R,2R)-2-({[5-fluoro-2-(trifluoromethoxy)phenyl]amino}methyl)cyclopropyl]benzenesulfonamide] | II | – |
| COc1ccc(Cl)cc1NC[C@H]1C[C@@H]1c1ccc(S(N)(=O)=O)cc1 [Example 1, ±trans 4-(2-{[(5-chloro-2-methoxyphenyl)amino]methyl}cyclopropyl)benzenesulfonamide] | II | – |
| NS(=O)(=O)c1ccc([C@H]2C[C@@H]2CNc2ccc(F)c(F)c2)cc1 [Example 2, ±trans 4-(2-{[(3,4-difluorophenyl)amino]methyl}cyclopropyl)benzenesulfonamide] | II | – |
